Results from US11998616B2, “Nanoparticles for crossing the blood brain barrier and methods of treatment using the same” (California Institute of Technology, priority 2018, dated 2024).
Entries after “also recorded” stand apart in the source; their conditions may differ.

Assays:
[1] = test system: human BT474-Gluc breast cancer metastatic brain tumors; test: Antitumor efficacy, brain tumors established by ICD injection; type: in vivo, Rag2−/−; Il2rg−/− mice
Method: Intracardiac (ICD) Brain Metastasis Model. All animals were treated according to the NIH guidelines for animal care and use as approved by the Caltech Institutional Animal Care and Use Committee. BT474-Gluc cells, transduced with an expression cassette encoding Gluc and CFP separated by an internal ribosomal entry site using a lentiviral vector, were obtained from Dr. Jain at Harvard University. BT474-Gluc cells were maintained in RPMI 1640 supplemented with 10% (v/v) FBS in a humidified oven at 37° C. with 5% CO2. 100,000 BT474-Gluc cells were suspended in 100 μL of RPMI and slowly injected into the left ventricle of female Rag2−/−; Il2rg−/− mice. Injections were performed blind, midway between the sternal notch and top of xyphoid process, and 13% anatomical left of sternum. Successful insertion into the left cardiac ventricle was confirmed by a bright red pulse of blood in the syringe.
(§1) Tumor Size Monitoring. For ICD and IV models, formation of BT474-Gluc brain metastatic tumors was monitored by MRI every third week until macroscopic tumors were visible (˜0.2 mm^3 in volume). Tumor growth was then monitored weekly by MRI, as for the IC model. Mice were anaesthetized with 1.5-2% (v/v) isoflurane in O2 at a flow rate of 1-1.5 mL/min. […] Tumor volume was determined manually from the T2 hyperintense tumor regions of the brain using Fiji software. For the IC model, tumor size was also monitored by measuring the activity of secreted Gluc in the blood. […] Blood was transferred to an opaque 96-well plate (Nunc), and Gluc activity measured using the Pierce Gaussia Luciferase Flash Assay Kit, according to the manufacturer's protocol. Photon counts were acquired for 5 s following addition of coelenterazine using a Safire 2 multi-mode plate reader (Tecan). […]
(§2) Treatments. Treatment began when brain metastatic tumors reached ˜2 mm^3, as measured by MRI. […]
Brain Tumors Show Significant Delay in Growth with TfR-Targeted Nanoparticles, but their Response Differs when Established by Different Methods. […] After IC, ICD or IV injection of BT474-Gluc cells, formation of brain metastatic tumors was monitored by MRI. […]

[2] = test system: human BT474-Gluc breast cancer metastatic brain tumors; test: Antitumor efficacy, brain tumors established by IV injection; type: in vivo, Rag2−/−; Il2rg−/− mice
Method: (§3) For the IC model, 50,000 BT474-Gluc cells in 2 μL RPMI were intracranially injected into the right cerebral hemisphere of female Rag2−/−; Il2rg−/− mice (Jackson Laboratory) using a stereotaxic apparatus at a rate of 0.1 μL/min. The coordinates for injection were 2 mm posterior, 1.5 mm lateral to bregma, and 2.5 mm depth from bregma. For the IV model, 2 M cells were suspended in 150 μL RPMI and slowly injected into the lateral tail vein of restrained female Rag2−/−; Il2rg−/− mice.
Tumor Size Monitoring. For ICD and IV models, formation of BT474-Gluc brain metastatic tumors was monitored by MRI every third week until macroscopic tumors were visible (˜0.2 mm^3 in volume). Tumor growth was then monitored weekly by MRI, as for the IC model. Mice were anaesthetized with 1.5-2% (v/v) isoflurane in O2 at a flow rate of 1-1.5 mL/min. T2-weighted 3D RARE images were acquired to assess the tumor volume. The image acquisition parameters were as follows: echo time: 6.1 ms; repetition time: 250 ms; rapid acquisition relaxation enhanced (RARE) factor: 4; number of averages: 4; field of view: 2.0 cm×1.2 cm×0.8 cm; matrix: 200×120×80 ([…] resolution). Tumor volume was determined manually from the T2 hyperintense tumor regions of the brain using Fiji software. For the IC model, tumor size was also monitored by measuring the activity of secreted Gluc in the blood. […] Blood was transferred to an opaque 96-well plate (Nunc), and Gluc activity measured using the Pierce Gaussia Luciferase Flash Assay Kit, according to the manufacturer's protocol. Photon counts were acquired for 5 s following addition of coelenterazine using a Safire 2 multi-mode plate reader (Tecan). […]
as §2
Development of Mouse Model that Replicates the Metastasis Process in HER2-Positive Breast Cancer Brain Metastasis Patients. […] HER2-positive BT474-Gluc cells were intravenously (IV) injected into Rag2^−/−; Il2rg^−/− mice, and formation of brain metastases was monitored by MRI. […]

[3] = Brain uptake of therapeutics in tumor and healthy brain tissue by HPLC; type: in vivo, Rag2−/−; Il2rg−/− mice; details: IC-established brain tumors; 24 h after 4 mg/kg dose (CPT basis)
Method: Brain Uptake of Therapeutics Differs in Tumor, but not Healthy Tissue between Models. To ascertain whether differences in brain penetration of the therapeutics might explain the discordance in efficacy between brain metastasis models, we systemically administered an additional dose of each treatment at the end of the efficacy study. After 24 h, mice were anesthetized and perfused with PBS to clear any remaining nanoparticles or free drug from the bloodstream. Drug uptake into tumor and healthy brain tissue was quantified by HPLC as previously described.

[4] = Gross toxicity observation during efficacy studies; type: in vivo, Rag2−/−; Il2rg−/− mice; details: tail vein injection once per week for 4 weeks
Method: Treatments. Treatment began when brain metastatic tumors reached ˜2 mm^3, as measured by MRI. Mice in each model were randomized into […] of six mice per group. CPT at a dose of 4 mg/kg (in 20% DMSO, 20% PEG 400, 30% ethanol, and 30% 10 mM pH 3.5 phosphoric acid), Herceptin at 24 mg/kg (in PBS, pH 7.4), TfR-targeted CPT nanoparticles at 4 mg/kg (CPT basis, in PBS, pH 7.4), TfR-targeted Herceptin nanoparticles at 24 mg/kg (Herceptin basis, in PBS, pH 7.4), and TfR-targeted combination CPT/Herceptin nanoparticles at 4 and 24 mg/kg (CPT and Herceptin bases, respectively, in PBS, pH 7.4) were freshly prepared. The different formulations were systemically administered by lateral tail vein injection once per week for 4 weeks. Injections were standardized to 150 μL per 20 g body weight. The control treatment was 0.9% (w/v) saline.

[5] = test system: human BT474-Gluc breast cancer metastatic brain tumors; test: Antitumor efficacy, brain tumors established by IC injection; type: in vivo, Rag2−/−; Il2rg−/− mice
Method: as §3
as §1, with “mL/min. T2-weighted 3D RARE images were acquired to assess the tumor volume.” for “mL/min.”
as §2
Brain Tumors Show Significant Delay in Growth with TfR-Targeted Nanoparticles, but their Response Differs when Established by Different Methods. […] After IC, ICD or IV injection of BT474-Gluc cells, formation of brain metastatic tumors was monitored by MRI. […] Brain tumor volume was measured weekly by MRI. Blood Gluc activity was measured in addition only for the IC model, due to substantial extracranial tumor burden in the ICD and IV models.

[6] = test system: BT474-Gluc cells; test: In vitro sensitivity to CPT of BT474-Gluc cells isolated from brain tumors and parental cells; type: cell-based, human; details: cells from IC-, ICD-, IV-established tumors and parental cells; dose-response curves
[7] = 4 mg/kg (CPT basis) weekly x4, end of the study

**Q.** Which Mean tumor volume [1, 7] does the source give for `CC[C@@]1(O)C(=O)OCc2c1cc1n(c2=O)Cc2cc3ccccc3nc2-1` [CPT, camptothecin] here?
**A.** The Mean tumor volume was 69 mm^3.

**Q.** What about the Median tumor volume [1, 7] of the same compound?
**A.** Its Median tumor volume is 71 mm^3.

**Q.** And the “tumor growth response” value ([1]; compared to saline)?
**A.** Its value is “modest response”.

**Q.** What about the Mean tumor volume [2, 7] of the same compound?
**A.** The Mean tumor volume was 86 mm^3.

**Q.** What about the Median tumor volume [2, 7] of the same compound?
**A.** The Median tumor volume was 86 mm^3.

**Q.** What about the “tumor growth inhibition” value ([2]; compared to saline) of the same compound?
**A.** The value was “no tumor growth inhibition”.

**Q.** What about the “accumulation in tumor tissue” value [3] of the same compound?
**A.** The value was “significant accumulation”.

**Q.** And the “gross signs of toxicity” value [4]?
**A.** Its value is “animals did have reactions to dosing”.

**Q.** What about the Mean tumor volume ([5]; 4 mg/kg (CPT basis) tail vein once per week for 4 weeks, end of the study) of the same compound?
**A.** The Mean tumor volume was 39 mm^3.

**Q.** What about the Median tumor volume [5, 7] of the same compound?
**A.** Its Median tumor volume is 39 mm^3.

**Q.** What about the “decrease in mean tumor volume compared to saline” value ([5]; end of the study) of the same compound?
**A.** Its value is 2.6 fold.

**Q.** What about the “sensitivity of cells to CPT in vitro” value [6] of the same compound?
**A.** Its value is “comparable sensitivities to CPT; also recorded: similarly sensitive to CPT”.
